Source: patent US11331299B2, “Medicinal use of serrulatane diterpenes” (The University of Sydney, priority 2016, dated 2022)
Where two headings read alike, the source gives them in different places.

Test system: 280 human cancer cell lines
Assay: OncoPanel cell proliferation assay (10-day)
Assay type: cell-based
Details: Homo sapiens; for IC50: read-out: Cell Count IC50; for EC50: read-out: Cell Count EC50; for GI50: read-out: Cell Count GI50
[1] = Caov-3, CaOV3, Female GU - Ovary
[2] = ChaGo-K-1, ChaGoK1, Lung - NSCLC
[3] = D341 Med, CNS - Medulloblastoma
[4] = Detroit 562, Detroit 562, Head and Neck
[5] = DoTc2-4510, DoTc2 4510, Lymphoma
[6] = G292, G-292, clone A141B1, Soft Tissue - Osteosarcoma
[7] = HEL 92.1.7, HEL-92-1-7, Leukemia
[8] = HOS, Soft Tissue - Osteosarcoma
[9] = HT-1080, HT-1080, Soft Tissue - Sarcoma
[10] = HUH-6-clone5, HUH-6 Clone 5, Liver
[11] = Hs 821.T, Soft Tissue - Sarcoma
[12] = Hs 888.Sk, Soft Tissue - Osteosarcoma

CC(C)=CCC[C@H](CO)[C@@H]1CC[C@@H](C)c2c1cc(C)c(O)c2O [Compound 1, 7,8,18-trihydroxyserrulat-14-ene]
IC50 (Calu-6, Calu6, Lung - NSCLC): 9.24 µM
EC50 [1]: 1.91 µM
GI50 [1]: 1.85 µM
IC50 [1]: 1.92 µM
EC50 (Capan-2, Capan-2, Pancreas): 1.33 µM
GI50 (Capan-2, Capan-2, Pancreas): 1.32 µM
IC50 (Capan-2, Capan-2, Pancreas): 1.33 µM
EC50 [2]: 1.53 µM
GI50 [2]: 1.53 µM
IC50 [2]: 1.54 µM
EC50 [3]: 9.09 µM
GI50 [3]: 9.37 µM
IC50 [3]: 9.46 µM
EC50 (DB, Lymphoma): 2.1 µM
GI50 (DB, Lymphoma): 2.09 µM
IC50 (DB, Lymphoma): 2.1 µM
EC50 (DBTRG-05MG, CNS - Glioma): 2.65 µM
GI50 (DBTRG-05MG, CNS - Glioma): 2.64 µM
IC50 (DBTRG-05MG, CNS - Glioma): 2.66 µM
EC50 (DK-MG, CNS - Glioma): 6.16 µM
GI50 (DK-MG, CNS - Glioma): 6.12 µM
IC50 (DK-MG, CNS - Glioma): 6.41 µM
EC50 (DLD-1, DLD-1, Colon): 2.96 µM
GI50 (DLD-1, DLD-1, Colon): 2.96 µM
IC50 (DLD-1, DLD-1, Colon): 2.96 µM
EC50 (DMS-53, DMS53, Lung - SCLC): 0.81 µM
GI50 (DMS-53, DMS53, Lung - SCLC): 0.77 µM
IC50 (DMS-53, DMS53, Lung - SCLC): 0.81 µM
EC50 (DMS-114, DMS114, Lung - SCLC): 2.77 µM
GI50 (DMS-114, DMS114, Lung - SCLC): 2.57 µM
IC50 (DMS-114, DMS114, Lung - SCLC): 2.77 µM
EC50 (DOHH-2, DOHH-2, Lymphoma): 1.41 µM
GI50 (DOHH-2, DOHH-2, Lymphoma): 1.41 µM
IC50 (DOHH-2, DOHH-2, Lymphoma): 1.41 µM
EC50 (DU-145, DU145, Prostate): 2.8 µM
GI50 (DU-145, DU145, Prostate): 2.78 µM
IC50 (DU-145, DU145, Prostate): 2.8 µM
EC50 (Daoy, CNS - Medulloblastoma): 1.06 µM
GI50 (Daoy, CNS - Medulloblastoma): 1.06 µM
IC50 (Daoy, CNS - Medulloblastoma): 1.06 µM
EC50 (Daudi, Lymphoma): 1.84 µM
GI50 (Daudi, Lymphoma): 1.84 µM
IC50 (Daudi, Lymphoma): 1.84 µM
EC50 [4]: 1.96 µM
GI50 [4]: 1.96 µM
IC50 [4]: 1.97 µM
EC50 [5]: 1.03 µM
GI50 [5]: 1.01 µM
IC50 [5]: 1.03 µM
EC50 (EB2, Lymphoma): 6.47 µM
GI50 (EB2, Lymphoma): 6.45 µM
IC50 (EB2, Lymphoma): 6.49 µM
EC50 (EB-3, Lymphoma): 3.56 µM
GI50 (EB-3, Lymphoma): 3.56 µM
IC50 (EB-3, Lymphoma): 3.56 µM
EC50 (EFM-19, EFM-19, Breast): 1.61 µM
GI50 (EFM-19, EFM-19, Breast): 1.54 µM
IC50 (EFM-19, EFM-19, Breast): 1.61 µM
EC50 (EM-2, Leukemia): 2.39 µM
GI50 (EM-2, Leukemia): 2.37 µM
IC50 (EM-2, Leukemia): 2.39 µM
EC50 (FaDu, Head and Neck): 0.87 µM
GI50 (FaDu, Head and Neck): 0.87 µM
IC50 (FaDu, Head and Neck): 0.87 µM
EC50 [6]: 4.55 µM
GI50 [6]: 4.41 µM
IC50 [6]: 4.57 µM
EC50 (G-361, G-361, Skin (Melanoma)): 1.79 µM
GI50 (G-361, G-361, Skin (Melanoma)): 1.77 µM
IC50 (G-361, G-361, Skin (Melanoma)): 1.79 µM
EC50 (G-401, G-401, Kidney): 4 µM
GI50 (G-401, G-401, Kidney): 3.99 µM
IC50 (G-401, G-401, Kidney): 4 µM
EC50 (GA-10, GA-10, Lymphoma): 1.93 µM
GI50 (GA-10, GA-10, Lymphoma): 1.94 µM
IC50 (GA-10, GA-10, Lymphoma): 1.94 µM
EC50 (H4, CNS - Glioma): 2.77 µM
GI50 (H4, CNS - Glioma): 2.77 µM
IC50 (H4, CNS - Glioma): 2.77 µM
EC50 (HCT-15, HCT-15, Colon): 1.84 µM
GI50 (HCT-15, HCT-15, Colon): 1.83 µM
IC50 (HCT-15, HCT-15, Colon): 1.84 µM
EC50 (HCT-116, HCT-116, Colon): 1.75 µM
GI50 (HCT-116, HCT-116, Colon): 1.75 µM
IC50 (HCT-116, HCT-116, Colon): 1.75 µM
EC50 (HEC-1-A, Female GU - Uterus): 2.57 µM
GI50 (HEC-1-A, Female GU - Uterus): 2.56 µM
IC50 (HEC-1-A, Female GU - Uterus): 2.57 µM
EC50 [7]: 13.9 µM
GI50 [7]: 13.9 µM
IC50 [7]: 13.9 µM
EC50 (HLE, Liver): 4.62 µM
GI50 (HLE, Liver): 4.59 µM
IC50 (HLE, Liver): 4.63 µM
EC50 (HLF, Liver): 4.47 µM
GI50 (HLF, Liver): 4.45 µM
IC50 (HLF, Liver): 4.48 µM
EC50 (HMCB, Skin (Melanoma)): 1.37 µM
GI50 (HMCB, Skin (Melanoma)): 1.36 µM
IC50 (HMCB, Skin (Melanoma)): 1.37 µM
EC50 [8]: 0.96 µM
GI50 [8]: 0.96 µM
IC50 [8]: 0.96 µM
EC50 (HPAF-II, Pancreas): 1.38 µM
GI50 (HPAF-II, Pancreas): 1.37 µM
IC50 (HPAF-II, Pancreas): 1.38 µM
EC50 (HT1197, HT-1197, Bladder): 2.31 µM
GI50 (HT1197, HT-1197, Bladder): 2.28 µM
IC50 (HT1197, HT-1197, Bladder): 2.34 µM
EC50 (HT, Lymphoma): 1.52 µM
GI50 (HT, Lymphoma): 1.51 µM
IC50 (HT, Lymphoma): 1.53 µM
EC50 (HT-3, Female GU - Cervix): 3.88 µM
GI50 (HT-3, Female GU - Cervix): 3.84 µM
IC50 (HT-3, Female GU - Cervix): 3.89 µM
EC50 (HT-29, HT-29, Colon): 4.01 µM
GI50 (HT-29, HT-29, Colon): 4 µM
IC50 (HT-29, HT-29, Colon): 4.01 µM
EC50 [9]: 0.96 µM
GI50 [9]: 0.96 µM
IC50 [9]: 0.96 µM
EC50 (HT-1376, HT1376, Bladder): 1.45 µM
GI50 (HT-1376, HT1376, Bladder): 1.43 µM
IC50 (HT-1376, HT1376, Bladder): 1.46 µM
EC50 [10]: 1.52 µM
GI50 [10]: 1.51 µM
IC50 [10]: 1.52 µM
EC50 (HeLa, Female GU - Cervix): 2.99 µM
GI50 (HeLa, Female GU - Cervix): 2.98 µM
IC50 (HeLa, Female GU - Cervix): 2.99 µM
EC50 (HepG2, HepG2, Liver): 0.82 µM
GI50 (HepG2, HepG2, Liver): 0.81 µM
IC50 (HepG2, HepG2, Liver): 0.82 µM
EC50 (Hs 229.T, Lung - NSCLC): 2.88 µM
GI50 (Hs 229.T, Lung - NSCLC): 2.89 µM
IC50 (Hs 229.T, Lung - NSCLC): 2.94 µM
EC50 (Hs 294T, Skin (Melanoma)): 2.64 µM
GI50 (Hs 294T, Skin (Melanoma)): 2.59 µM
IC50 (Hs 294T, Skin (Melanoma)): 2.64 µM
EC50 (Hs 445, Hs 445, Lymphoma): 1.3 µM
GI50 (Hs 445, Hs 445, Lymphoma): 1.31 µM
IC50 (Hs 445, Hs 445, Lymphoma): 1.32 µM
EC50 (Hs 611.T, Lymphoma): 2.92 µM
GI50 (Hs 611.T, Lymphoma): 2.91 µM
IC50 (Hs 611.T, Lymphoma): 2.94 µM
EC50 (Hs 683, Hs 683, CNS - Glioma): 4.9 µM
GI50 (Hs 683, Hs 683, CNS - Glioma): 4.76 µM
IC50 (Hs 683, Hs 683, CNS - Glioma): 4.91 µM
EC50 (Hs 688(A).T, Skin (Melanoma)): 1.33 µM
GI50 (Hs 688(A).T, Skin (Melanoma)): 1.27 µM
IC50 (Hs 688(A).T, Skin (Melanoma)): 1.44 µM
EC50 (Hs746T, HS 746T, Stomach): 5.58 µM
GI50 (Hs746T, HS 746T, Stomach): 4.64 µM
IC50 (Hs746T, HS 746T, Stomach): 5.74 µM
EC50 (Hs766T, Hs 766T, Pancreas): 1.61 µM
GI50 (Hs766T, Hs 766T, Pancreas): 1.54 µM
IC50 (Hs766T, Hs 766T, Pancreas): 1.61 µM
EC50 [11]: 4.22 µM
GI50 [11]: 1.8 µM
IC50 [11]: 4.22 µM
EC50 [12]: 2.2 µM
GI50 [12]: 2.05 µM
IC50 [12]: 2.38 µM
EC50 (Hs 934.T, Skin (Melanoma)): 2.53 µM
GI50 (Hs 934.T, Skin (Melanoma)): 2.34 µM
IC50 (Hs 934.T, Skin (Melanoma)): 3.27 µM
EC50 (Hs 936.T(C1), Skin (Melanoma)): 2 µM
GI50 (Hs 936.T(C1), Skin (Melanoma)): 1.97 µM
IC50 (Hs 936.T(C1), Skin (Melanoma)): 2 µM
EC50 (Hs-578T, Hs 578T, Breast): 4.74 µM
GI50 (Hs-578T, Hs 578T, Breast): 4.68 µM
IC50 (Hs-578T, Hs 578T, Breast): 4.76 µM
EC50 (HuCCT-1, HuCCT1, Liver): 2.48 µM
GI50 (HuCCT-1, HuCCT1, Liver): 2.48 µM
IC50 (HuCCT-1, HuCCT1, Liver): 2.48 µM
EC50 (HuP-T4, HuP-T4, Pancreas): 4.52 µM
GI50 (HuP-T4, HuP-T4, Pancreas): 4.53 µM
IC50 (HuP-T4, HuP-T4, Pancreas): 4.54 µM
EC50 (J82, Bladder): 1.06 µM
GI50 (J82, Bladder): 1.05 µM
IC50 (J82, Bladder): 1.06 µM
EC50 (JAR, Placenta): 12.2 µM
GI50 (JAR, Placenta): 12.2 µM
IC50 (JAR, Placenta): 12.2 µM
EC50 (JEG-3, JEG-3, Placenta): 4.33 µM
GI50 (JEG-3, JEG-3, Placenta): 4.32 µM
IC50 (JEG-3, JEG-3, Placenta): 4.33 µM
EC50 (JIYOYE, Lymphoma): 5.88 µM
GI50 (JIYOYE, Lymphoma): 5.87 µM
IC50 (JIYOYE, Lymphoma): 5.88 µM
EC50 (JeKo-1, JeKo-1, Lymphoma): 5.23 µM
GI50 (JeKo-1, JeKo-1, Lymphoma): 5.21 µM
IC50 (JeKo-1, JeKo-1, Lymphoma): 5.23 µM
EC50 (Jurkat, Leukemia): 2.25 µM
GI50 (Jurkat, Leukemia): 2.24 µM
IC50 (Jurkat, Leukemia): 2.25 µM
EC50 (K562, K562, Leukemia): 4.6 µM
GI50 (K562, K562, Leukemia): 4.58 µM
IC50 (K562, K562, Leukemia): 4.6 µM
EC50 (KATO III, Stomach): 3.28 µM
GI50 (KATO III, Stomach): 3.27 µM
IC50 (KATO III, Stomach): 3.28 µM
EC50 (KHOS-240S, Soft Tissue - Osteosarcoma): 0.95 µM
